# Test system: MDA-MB-468 spheroids with HUVEC/MSC, viability
# Experiment: Anticancer human tumor MDA-MB-468 cell line growth inhibition [PI3K];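 further: spheroids exposed to agents for seven days before readout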;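 on viability, T/C: 100% = DMSO vehicle control viability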
# Conditions: for IC50: curve of first compound; for viability, T/C: stronger effect = lower value
# Excerpt: Combinatorial screen of targeted agents with the PI3K inhibitors inavolisib, alpelisib, duvelisib, and copanlisib in multi-cell type tumor spheroids
# A high-throughput screen of multi-cell type tumor spheroids was designed to identify active combinations of targeted small molecules and PI3K pathway inhibitors. Complex spheroids include a stromal component modeled by human endothelial cells (HUVEC) and fibroblasts modeled by human mesenchymal stem cells (MSCs). The concentration ranges selected for each drug and investigational agent were based upon clinically achievable concentrations if the clinical Cmax of the agent was known.
# Compounds. The drugs and investigational agents: inavolisib (NSC800729), alpelisib (NSC765974), duvelisib (NSC772469), copanlisib (NSC816437), ipatasertib (NSC767898), afuresertib (NSC778305), talazoparib (NSC767125), sapanisertib (NSC764658), selumetinib (NSC741078), tovorafenib (DAY101, NSC766906), vemurafenib (NSC761431), ravoxertinib (NSC781343), sotorasib (NSC818433), MRTX1133 (NSC 836407), abemaciclib (NSC 768073), palbociclib (NSC758247), venetoclax (NSC 766270), SY5609 (NSC837396), enzalutamide (NSC755605), and darolutamide (NSC825331), were obtained from the National Cancer Institute (NCI) Developmental Therapeutics Program Chemical Repository. The FDA-approved anticancer drug set is available from the NCI Developmental Therapeutics Program. […] The stock solutions were prepared in dimethyl sulfoxide (DMSO, Sigma-Aldrich, St. Louis, MO, cat. D2650) at 800-fold the tested concentration and stored at -70 degrees C prior to their use. All drugs and investigational agents were tested over a range starting from a high concentration at or near the clinical Cmax and decreasing in half-log increments. If the clinical Cmax for an agent had not been determined, the highest concentration tested was 10 microM.
# Cell Culture. All cells were maintained in an incubator at 37 degrees C and 5% CO2 with 95% humidity. The PDC lines were cultured according to standard operating procedures established by the NCI PDMR (https://pdmr.cancer.gov/sops/default.htm). All PDCs were thawed and cultured in Matrigel-coated flasks prepared with a working solution of 1X Ham's F-12 nutrient mix, without supplementation (Invitrogen, Waltham, MA, cat. 11765054), 100 U/mL penicillin-streptomycin (Invitrogen, cat. 15140122), and 2.5% Matrigel (Corning Inc., Corning, NY, cat. 354248) for the first three passages. The 354836-022-R-J1-PDC, 475296-252-R-J1-PDC, and 997726-040-R-J2-PDC lines were cultured in 6A media, which includes advanced DMEM/F-12 (Thermo Fisher Scientific, cat. 12634028), 10 mM HEPES (Thermo Fisher Scientific, cat. 15630080), 1X GlutaMAX supplement (Thermo Fisher Scientific, cat. 35050061), 0.1 mg/mL primocin (InvivoGen, San Diego, CA, cat. ant-pm-2), 10% defined fetal bovine serum, heat inactivated (HyClone Laboratories Inc., Logan, UT, cat. SH30070.03HI), 50% L-WRN conditioned media (ATCC, cat. CRL-3276), 1.25 mM N-Acetyl-L-cysteine (Sigma-Aldrich, cat. A9165), 10 mM nicotinamide (Sigma-Aldrich, cat. N0636), 1X B-27 supplement (Thermo Fisher Scientific, cat. 17504044), 1X N-2 supplement (Thermo Fisher Scientific, cat. 17502048), and 10 microM Y-27632 dihydrochloride (Tocris Bioscience, Bristol, United Kingdom, cat. 1254). The 624824-186-R-J2-PDC line was cultured in 6C/Colon 1B media, which includes all 6A media components plus 50 ng/mL human EGF recombinant protein (Thermo Fisher Scientific, cat. PHG0311). […]
# [1] = second compound 0.0316 µM, first compound 0.0316 µM
# [2] = second compound 0.0316 µM, first compound 0.1 µM
# [3] = second compound 0.0316 µM, first compound 0.316 µM
# [4] = second compound 0.0316 µM, first compound 1 µM
# [5] = second compound 0.0316 µM, first compound 3.16 µM
# [6] = second compound 0.0316 µM, first compound 10 µM
# [7] = second compound 0.1 µM, first compound 0.0316 µM
# [8] = second compound 0.1 µM, first compound 0.1 µM
# [9] = second compound 0.1 µM, first compound 0.316 µM
# [10] = second compound 0.1 µM, first compound 1 µM
# [11] = second compound 0.1 µM, first compound 3.16 µM
# [12] = second compound 0.1 µM, first compound 10 µM
# [13] = second compound 0.316 µM, first compound 0.0316 µM
# [14] = second compound 0.316 µM, first compound 0.1 µM
# [15] = second compound 0.316 µM, first compound 0.316 µM
# [16] = second compound 0.316 µM, first compound 1 µM
# [17] = second compound 0.316 µM, first compound 3.16 µM
# [18] = second compound 0.316 µM, first compound 10 µM
# [19] = second compound 1 µM, first compound 0.0316 µM
# [20] = second compound 1 µM, first compound 0.1 µM
# [21] = second compound 1 µM, first compound 0.316 µM
# [22] = second compound 1 µM, first compound 1 µM
# [23] = second compound 1 µM, first compound 3.16 µM
# [24] = second compound 1 µM, first compound 10 µM
# [25] = second compound 3.16 µM, first compound 0.0316 µM
# [26] = second compound 3.16 µM, first compound 0.1 µM
# [27] = second compound 3.16 µM, first compound 0.316 µM
# [28] = second compound 3.16 µM, first compound 1 µM
# [29] = second compound 3.16 µM, first compound 3.16 µM
# [30] = second compound 3.16 µM, first compound 10 µM
# [31] = second compound 10 µM, first compound 0.0316 µM
# [32] = second compound 10 µM, first compound 0.1 µM
# [33] = second compound 10 µM, first compound 0.316 µM
# [34] = second compound 10 µM, first compound 1 µM
# [35] = second compound 10 µM, first compound 3.16 µM
# [36] = second compound 10 µM, first compound 10 µM
structure (smiles),measurement,setting,value
CC1(C)CCC(CN2CCN(c3ccc(C(=O)NS(=O)(=O)c4ccc(NCC5CCOCC5)c([N+](=O)[O-])c4)c(Oc4cnc5[nH]ccc5c4)c3)CC2)=C(c2ccc(Cl)cc2)C1 + Cc1nc(NC(=O)N2CCCC2C(N)=O)sc1-c1ccnc(C(C)(C)C(F)(F)F)c1,IC50,second compound 0.0316 µM,4.01 µM
same,IC50,second compound 0.1 µM,4.59 µM
same,IC50,second compound 0.316 µM,3.26 µM
same,IC50,second compound 1 µM,3.8 µM
same,IC50,second compound 3.16 µM,2.12 µM
same,IC50,second compound 10 µM,< 0.0316 µM
same,"viability, T/C",[1],93.8%
same,"viability, T/C",[2],110%
same,"viability, T/C",[3],85.9%
same,"viability, T/C",[4],103%
same,"viability, T/C",[5],61%
same,"viability, T/C",[6],8.14%
same,"viability, T/C",[7],85.3%
same,"viability, T/C",[8],92.4%
same,"viability, T/C",[9],80.2%
same,"viability, T/C",[10],104%
same,"viability, T/C",[11],69.9%
same,"viability, T/C",[12],8.59%
same,"viability, T/C",[13],110%
same,"viability, T/C",[14],105%
same,"viability, T/C",[15],97.5%
same,"viability, T/C",[16],88.7%
same,"viability, T/C",[17],50.2%
same,"viability, T/C",[18],7.04%
same,"viability, T/C",[19],99.7%
same,"viability, T/C",[20],72.3%
same,"viability, T/C",[21],99.9%
same,"viability, T/C",[22],85.4%
same,"viability, T/C",[23],58.1%
same,"viability, T/C",[24],7.9%
same,"viability, T/C",[25],77.8%
same,"viability, T/C",[26],61.8%
same,"viability, T/C",[27],54%
same,"viability, T/C",[28],66.3%
same,"viability, T/C",[29],43.3%
same,"viability, T/C",[30],9.97%
same,"viability, T/C",[31],35.2%
same,"viability, T/C",[32],27.1%
same,"viability, T/C",[33],35.2%
same,"viability, T/C",[34],32.4%
same,"viability, T/C",[35],24.9%
same,"viability, T/C",[36],8.18%
C=CC(=O)N1CCN(c2nc(=O)n(-c3c(C)ccnc3C(C)C)c3nc(-c4c(O)cccc4F)c(F)cc23)C(C)C1 (centres undefined) + CC(Nc1ncnc2nc[nH]c12)c1cc2cccc(Cl)c2c(=O)n1-c1ccccc1,IC50,second compound 0.0316 µM,> 10 µM
same,IC50,second compound 0.1 µM,> 10 µM
same,IC50,second compound 0.316 µM,> 10 µM
same,IC50,second compound 1 µM,> 10 µM
same,IC50,second compound 3.16 µM,> 10 µM
same,IC50,second compound 10 µM,< 0.0316 µM
same,"viability, T/C",[1],88.1%
same,"viability, T/C",[2],93%
same,"viability, T/C",[3],99.4%
same,"viability, T/C",[4],99.3%
same,"viability, T/C",[5],86.1%
same,"viability, T/C",[6],74.2%
same,"viability, T/C",[7],89.3%
same,"viability, T/C",[8],79.8%
same,"viability, T/C",[9],83.7%
same,"viability, T/C",[10],94.2%
same,"viability, T/C",[11],91.1%
same,"viability, T/C",[12],73.7%
same,"viability, T/C",[13],70.4%
same,"viability, T/C",[14],74.4%
same,"viability, T/C",[15],84.3%
same,"viability, T/C",[16],94.7%
same,"viability, T/C",[17],76.9%
same,"viability, T/C",[18],61.4%
same,"viability, T/C",[19],70.6%
same,"viability, T/C",[20],61.4%
same,"viability, T/C",[21],82.2%
same,"viability, T/C",[22],84.6%
same,"viability, T/C",[23],84.4%
same,"viability, T/C",[24],60.6%
same,"viability, T/C",[25],54.5%
same,"viability, T/C",[26],57.1%
same,"viability, T/C",[27],61.4%
same,"viability, T/C",[28],68.5%
same,"viability, T/C",[29],70.6%
same,"viability, T/C",[30],51%
same,"viability, T/C",[31],41%
same,"viability, T/C",[32],46.7%
same,"viability, T/C",[33],47.1%
same,"viability, T/C",[34],51.1%
same,"viability, T/C",[35],50.1%
same,"viability, T/C",[36],37.4%

# — PubChem BioAssay AID1963960 (Molecular Pharmacology Branch, DTP, NCI, 2024)
